Assay results published in paper PMC7139824, “Molecular Mechanisms of PARP-1 Inhibitor 7-Methylguanine” (International Journal of Molecular Sciences, 2020).

Assays:
[1] = biological target: T1, poly(ADP-ribose) polymerase 1 (PARP-1) (Homo sapiens, UniProt P09874); assay: real-time fluorescence anisotropy activity assay, purified PARP-1 with DNA duplex; competitive kinetics vs NAD+; type: biochemical
T1 construct: gene PARP1

[2] = biological target: T1, poly(ADP-ribose) polymerase 1 (PARP-1); assay: fluorescence anisotropy kinetics, reaction rate vs NAD+ concentration ([…]); type: biochemical

T1 sequence (P09874 2-1014): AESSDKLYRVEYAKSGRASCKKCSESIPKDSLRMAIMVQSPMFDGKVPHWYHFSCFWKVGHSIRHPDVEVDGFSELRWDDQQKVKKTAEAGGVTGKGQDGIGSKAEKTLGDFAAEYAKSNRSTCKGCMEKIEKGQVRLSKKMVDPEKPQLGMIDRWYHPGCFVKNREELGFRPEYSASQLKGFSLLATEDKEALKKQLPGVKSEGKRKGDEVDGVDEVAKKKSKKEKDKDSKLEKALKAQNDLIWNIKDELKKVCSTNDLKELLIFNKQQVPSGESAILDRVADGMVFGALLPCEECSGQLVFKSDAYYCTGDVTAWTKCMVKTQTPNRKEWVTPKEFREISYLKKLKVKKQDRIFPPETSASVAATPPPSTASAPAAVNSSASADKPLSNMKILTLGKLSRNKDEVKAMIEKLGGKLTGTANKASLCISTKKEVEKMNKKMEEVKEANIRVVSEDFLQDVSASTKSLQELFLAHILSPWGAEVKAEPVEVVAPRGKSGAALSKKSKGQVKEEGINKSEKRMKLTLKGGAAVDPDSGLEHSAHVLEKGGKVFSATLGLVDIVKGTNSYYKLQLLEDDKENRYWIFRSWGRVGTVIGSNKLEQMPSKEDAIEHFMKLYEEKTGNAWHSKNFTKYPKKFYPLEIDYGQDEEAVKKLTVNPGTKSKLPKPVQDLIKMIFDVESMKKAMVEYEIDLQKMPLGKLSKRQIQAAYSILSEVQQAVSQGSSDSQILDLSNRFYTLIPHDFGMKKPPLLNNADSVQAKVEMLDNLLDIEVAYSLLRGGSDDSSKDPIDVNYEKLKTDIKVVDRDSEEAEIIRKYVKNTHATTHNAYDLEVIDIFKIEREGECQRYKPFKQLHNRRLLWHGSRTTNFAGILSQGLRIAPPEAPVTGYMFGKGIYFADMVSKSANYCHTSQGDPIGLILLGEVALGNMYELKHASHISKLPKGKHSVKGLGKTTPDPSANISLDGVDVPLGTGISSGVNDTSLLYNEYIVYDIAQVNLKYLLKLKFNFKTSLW

| Compound | Ki [1] [µM] | fluorescence anisotropy kinetics, reaction rate vs NAD+ concentration (0-2500 μM) [2] |
| --- | --- | --- |
| Cn1cnc2nc(N)[nH]c(=O)c21 [7-MG, 7-methylguanine] | 61 ± 9 |  |
| NC(=O)c1ccc[n+]([C@@H]2O[C@H](COP(=O)([O-])OP(=O)(O)OC[C@H]3O[C@@H](n4cnc5c(N)ncnc54)[C@H](O)[C@@H]3O)[C@@H](O)[C@H]2O)c1 [NAD^+] |  | Dependence of the PARP-1-catalyzed reaction rate on the NAD^+ concentration at different concentrations of 7-MG |
